Data from ChEMBL document CHEMBL3352681, “A cyclic GB virus C derived peptide with anti-HIV-1 activity targets the fusion peptide of HIV-1” (Eur J Med Chem, 2014).
Calls of active or inactive are those of the source. No cut-off for these calls is given here. Peptide text beside a SMILES is read from it.

Assays:
[1] = tested on: Human immunodeficiency virus 1; test: Binding affinity to HIV1 fusion protein in PLGA nanoparticles assessed as protein-protein interactions by STD-NMR spectroscopy
[2] = tested on: Human immunodeficiency virus 1; test: Antiviral activity against HIV1 NL4-3 infected in TZM-bl cells assessed as inhibition of viral replication; type: functional, organism-based
HeLa [3] = test: Inhibition of HIV1 fusion protein assessed as inhibition of syncytium formation between HeLa cells expressing HIV-1 envelope protein and TZM-bl cells expressing human CCR5 receptor; type: cell-based; conditions: Human immunodeficiency virus 1
[4] = tested on: Human immunodeficiency virus 1; test: Binding affinity to HIV1 fusion protein in POPG vesicles assessed as induction of conformational changes infusion secondary structure by CD spectroscopy
HeLa [5] = test: Inhibition of HIV1 fusion protein assessed as inhibition of syncytium formation between HeLa cells expressing HIV-1 envelope protein and TZM-bl cells expressing human CD4 receptor; type: cell-based; conditions: Human immunodeficiency virus 1
[6] = tested on: Human immunodeficiency virus 1; test: Binding affinity to biotin-labeled HIV1 fusion protein using 5 uM compound immobilized on microtiter plates by ELISA method
[7] = tested on: Human immunodeficiency virus 1; test: Binding affinity to HIV1 fusion protein in DPPG lipid monolayers assessed as reduction in fusion protein-induced lipid layer phase transition at 5% by fluorescence microscopy
[8] = Toxicity against rabbit RBCs assessed as induction of hemolysis after 60 mins; type: cell-based, Oryctolagus cuniculus; conditions: erythrocyte, 1 h
HeLa [9] = test: Inhibition of HIV1 fusion protein assessed as inhibition of syncytium formation between HeLa cells expressing HIV-1 envelope protein and TZM-bl cells expressing human CXCR4 receptor; type: cell-based; conditions: Human immunodeficiency virus 1
[10] = tested on: Human immunodeficiency virus 1; test: Inhibition of fusogenic capacity of HIV1 fusion protein in rabbit RBCs assessed as reduction in fusion protein-induced hemolsysis at 1 to 100 uM after 60 mins
[11] = tested on: Human immunodeficiency virus 1; test: Binding affinity to NBD-labeled HIV1 fusion protein in POPG LUVs at 0.0125 to 0.4 uM using Rho-labeled compound by FRET assay
[12] = tested on: Human immunodeficiency virus 1; test: Binding affinity to HIV1 fusion protein in DPPG lipid monolayers at 5% by compression isotherms analysis
[13] = tested on: Human immunodeficiency virus 1; test: Binding affinity to [W8]HIV1 fusion protein assessed as mole fraction partition coefficients in POPG liposomes by fluorescence assay; conditions: Microsome
Murine leukemia virus = test: Binding affinity to NBD-labeled MLV fusion protein in POPG LUVs at 0.0125 to 0.4 uM using Rho-labeled compound by FRET assay
[14] = tested on: Human immunodeficiency virus 1; test: Antiviral activity against HIV1 NL4-3 in cell based assay; type: functional, organism-based; conditions: Human immunodeficiency virus 1, NL4-3
[15] = tested on: Human immunodeficiency virus 1; test: Binding affinity to biotin-labeled HIV1 fusion protein using compound immobilized on microtiter plates by ELISA method
[16] = biological target: T1, Melittin (Apis mellifera) (UniProt P01501); test: Binding affinity to bee venom melittin in POPG LUVs assessed as reduction in melittin-induced vesicular permeabilization process at compound/melittin ratio of 10 by ANTS/DPX assay
T1 sequence (whole entry): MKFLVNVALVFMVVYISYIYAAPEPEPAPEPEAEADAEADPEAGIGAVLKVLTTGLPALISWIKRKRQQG

[17] = tested on: Human immunodeficiency virus 1; test: Inhibition of fusogenic capacity of HIV1 fusion protein in POPG LUVs assessed as reduction in fusion protein-induced vesicular permeabilization process at compound/fusion protein ratio of 20 by ANTS/DPX assay
[18] = tested on: Human immunodeficiency virus 1; test: Inhibition of biotin-labeled HIV1 fusion protein binding to immobilized E1P8cyc peptide by ELISA method
[19] = tested on: Human immunodeficiency virus 1; test: Inhibition of fusogenic capacity of HIV1 fusion protein in rabbit RBCs assessed as reduction in fusion protein-induced hemolsysis at 10 to 1000 uM after 60 mins

| Molecule | Activity [1] | Activity [2] | inhibition (HeLa [3]) | Activity [4] | inhibition (HeLa [5]) | Activity [6] | Activity [7] | Activity [8] | inhibition (HeLa [9]) | inhibition [10] | Activity [11] | Activity [12] | K (mole fraction) [13] | Activity [18] | inhibition [19] | inhibition [17] | other results |
| --- | --- | --- | --- | --- | --- | --- | --- | --- | --- | --- | --- | --- | --- | --- | --- | --- | --- |
| H-LEAIPCSIPPEFLFGKPFVF-OH | inactive | Active | Active | Active | Active | Active | Active | Non-toxic | Active | Active | Active | Active |  |  |  |  |  |
| CC[C@H](C)[C@H](NC(=O)[C@H](CC(=O)O)NC(=O)[C@H](CCC(=O)O)NC(=O)[C@@H]1CCCN1C(=O)[C@H](C)N)C(=O)NCC(=O)N[C@@H](Cc1ccccc1)C(=O)N[C@H]1CSSC[C@@H](C(=O)N[C@@H](CC(C)C)C(=O)N[C@H](C(=O)N[C@@H](C)C(=O)N[C@@H](CC(C)C)C(=O)NCC(=O)O)C(C)C)NC(=O)CNC(=O)CNC(=O)[C@H](CCC(=O)O)NC(=O)[C@H](CC(C)C)NC1=O (HELM PEPTIDE1{A.P.E.D.I.G.F.C.L.E.G.G.C.L.V.A.L.G}$PEPTIDE1,PEPTIDE1,8:R3-13:R3$$$V2.0) | Active |  |  | Active |  | Active | Active | Non-toxic |  | Dose-dependent effect | Active | Active | 580000 | Active |  |  | Activity (Murine leukemia virus): inactive; IC50 [14]: 7.8 µM; Activity [15]: Dose-dependent effect; Activity [16]: inactive; Imax [17]: 40% |
| CC[C@H](C)[C@H](NC(=O)[C@H](CC(=O)O)NC(=O)[C@H](CCC(=O)O)NC(=O)[C@@H]1CCCN1C(=O)[C@H](C)N)C(=O)NCC(=O)N[C@@H](Cc1ccccc1)C(=O)N[C@@H](CS)C(=O)N[C@@H](CC(C)C)C(=O)N[C@@H](CCC(=O)O)C(=O)NCC(=O)NCC(=O)N[C@@H](CS)C(=O)N[C@@H](CC(C)C)C(=O)N[C@H](C(=O)N[C@@H](C)C(=O)N[C@@H](CC(C)C)C(=O)NCC(=O)O)C(C)C (H-APEDIGFCLEGGCLVALG-OH) | inactive |  |  | Active |  | inactive |  |  |  |  |  |  | 730000 |  | Active | Active |  |
| H-SGVLTVGVALTRRVYPVP-OH |  | inactive | inactive | inactive | inactive | inactive |  |  | inactive |  |  |  |  | inactive | inactive | inactive |  |
